These results are taken from patent US5866775A, “Glyphosate-tolerant 5-enolpyruvyl-3-phosphoshikimate synthases” (Monsanto Company, priority 1990, dated 1999).

A value given as a limit tells only on which side of the number the result lay.

The test system of the experiment is bacteria harboring pMON342 or pMON9566. As to the kind of experiment: Glyphosate tolerance of bacteria expressing petunia EPSPS from the double pL promoter. Type of experiment: cell-based, E. coli. Conditions: either plasmid. The procedure:
The double pL promoter used to express the petunia EPSP synthase in pMON342 and pMON9566 leads to a very high level of expression of the enzyme. The enzyme is present at such high concentration that bacteria harboring either of these plasmids are tolerant to very high levels of glyphosate (>5 mM) in growth media, even though the enzyme produced by pMON342 is the wild type form. […] A plasmid for identifying such a promoter was constructed as follows: pMON9544, the precursor to pMON342, was digested with BamHI to remove the pL promoters, and was recircularized by ligation resulting in pMON362. The EcoRI fragment of pMON9556 containing the 3'portion of the petunia EPSPS cDNA was then inserted into the EcoRI site of this plasmid reconstituting the entire coding sequence. The resulting plasmid, pMON364 is identical to pMON342 except that there is no promoter 5' of the EPSP synthase coding sequence.

In the case of `O=C(O)CNCP(=O)(O)O` [glyphosate, N-phosphonomethylglycine], the “glyphosate level tolerated in growth media” value is given as more than 5 mM.
